Data: ChEMBL document CHEMBL3877259, “Design and discovery of 4-anilinoquinazoline-urea derivatives as dual TK inhibitors of EGFR and VEGFR-2” (Eur J Med Chem, 2017)

What was measured:
[1] = target: Vascular endothelial growth factor receptor 2 (Homo sapiens, UniProt P35968); assay: Inhibition of N-terminal GST-tagged human VEGFR-2 cytoplasmic domain (790 to 1356 residues) expressed in baculovirus expression system preincubated for 10 mins followed by FAM-labelled peptide substrate addition by caliper mobility shift assay
[2] = Antiproliferative activity against human HT-29 cells measured after 48 hrs by MTT assay; format: functional, cell-based; details: HT-29, 48 h
[3] = Antiproliferative activity against human MCF7 cells measured after 48 hrs by MTT assay; format: functional, cell-based; details: MCF7, 48 h
[4] = Antiproliferative activity against human H460 cells measured after 48 hrs by MTT assay; format: functional, cell-based; details: NCI-H460, 48 h
[5] = target: Epidermal growth factor receptor (Homo sapiens, UniProt P00533)
Sequence of Epidermal growth factor receptor (P00533 whole entry): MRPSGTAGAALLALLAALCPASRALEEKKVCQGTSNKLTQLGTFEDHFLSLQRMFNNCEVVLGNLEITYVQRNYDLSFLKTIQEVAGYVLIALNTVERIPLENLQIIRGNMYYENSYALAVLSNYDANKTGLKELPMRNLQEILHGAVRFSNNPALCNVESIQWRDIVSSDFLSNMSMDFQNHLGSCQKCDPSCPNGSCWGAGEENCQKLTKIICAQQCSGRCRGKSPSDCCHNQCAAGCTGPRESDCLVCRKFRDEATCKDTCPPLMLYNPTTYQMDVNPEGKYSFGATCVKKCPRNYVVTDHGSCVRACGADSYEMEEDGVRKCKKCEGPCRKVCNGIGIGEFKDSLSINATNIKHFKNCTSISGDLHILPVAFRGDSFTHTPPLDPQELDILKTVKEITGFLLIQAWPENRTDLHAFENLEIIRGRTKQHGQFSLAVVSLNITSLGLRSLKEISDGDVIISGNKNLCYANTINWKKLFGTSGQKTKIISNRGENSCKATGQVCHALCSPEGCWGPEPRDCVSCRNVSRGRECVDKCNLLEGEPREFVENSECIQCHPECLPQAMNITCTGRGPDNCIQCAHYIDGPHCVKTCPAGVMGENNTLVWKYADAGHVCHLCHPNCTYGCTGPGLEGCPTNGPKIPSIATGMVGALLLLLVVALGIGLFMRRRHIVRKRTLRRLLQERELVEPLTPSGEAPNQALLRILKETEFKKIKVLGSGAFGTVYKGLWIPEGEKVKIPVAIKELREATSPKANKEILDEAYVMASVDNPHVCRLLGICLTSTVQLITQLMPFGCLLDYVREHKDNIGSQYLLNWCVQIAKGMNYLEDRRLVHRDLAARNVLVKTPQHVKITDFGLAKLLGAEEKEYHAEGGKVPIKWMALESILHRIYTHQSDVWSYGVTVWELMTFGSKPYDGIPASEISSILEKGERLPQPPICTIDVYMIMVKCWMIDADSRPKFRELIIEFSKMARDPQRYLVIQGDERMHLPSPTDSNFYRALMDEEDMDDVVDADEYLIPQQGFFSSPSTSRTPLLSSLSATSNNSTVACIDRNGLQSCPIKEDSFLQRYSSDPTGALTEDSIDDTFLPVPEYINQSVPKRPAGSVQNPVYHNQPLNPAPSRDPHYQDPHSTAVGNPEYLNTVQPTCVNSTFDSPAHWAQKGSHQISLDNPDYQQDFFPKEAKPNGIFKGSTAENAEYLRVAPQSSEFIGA

Sequence of Vascular endothelial growth factor receptor 2 (P35968 whole entry, the tested form may be a part): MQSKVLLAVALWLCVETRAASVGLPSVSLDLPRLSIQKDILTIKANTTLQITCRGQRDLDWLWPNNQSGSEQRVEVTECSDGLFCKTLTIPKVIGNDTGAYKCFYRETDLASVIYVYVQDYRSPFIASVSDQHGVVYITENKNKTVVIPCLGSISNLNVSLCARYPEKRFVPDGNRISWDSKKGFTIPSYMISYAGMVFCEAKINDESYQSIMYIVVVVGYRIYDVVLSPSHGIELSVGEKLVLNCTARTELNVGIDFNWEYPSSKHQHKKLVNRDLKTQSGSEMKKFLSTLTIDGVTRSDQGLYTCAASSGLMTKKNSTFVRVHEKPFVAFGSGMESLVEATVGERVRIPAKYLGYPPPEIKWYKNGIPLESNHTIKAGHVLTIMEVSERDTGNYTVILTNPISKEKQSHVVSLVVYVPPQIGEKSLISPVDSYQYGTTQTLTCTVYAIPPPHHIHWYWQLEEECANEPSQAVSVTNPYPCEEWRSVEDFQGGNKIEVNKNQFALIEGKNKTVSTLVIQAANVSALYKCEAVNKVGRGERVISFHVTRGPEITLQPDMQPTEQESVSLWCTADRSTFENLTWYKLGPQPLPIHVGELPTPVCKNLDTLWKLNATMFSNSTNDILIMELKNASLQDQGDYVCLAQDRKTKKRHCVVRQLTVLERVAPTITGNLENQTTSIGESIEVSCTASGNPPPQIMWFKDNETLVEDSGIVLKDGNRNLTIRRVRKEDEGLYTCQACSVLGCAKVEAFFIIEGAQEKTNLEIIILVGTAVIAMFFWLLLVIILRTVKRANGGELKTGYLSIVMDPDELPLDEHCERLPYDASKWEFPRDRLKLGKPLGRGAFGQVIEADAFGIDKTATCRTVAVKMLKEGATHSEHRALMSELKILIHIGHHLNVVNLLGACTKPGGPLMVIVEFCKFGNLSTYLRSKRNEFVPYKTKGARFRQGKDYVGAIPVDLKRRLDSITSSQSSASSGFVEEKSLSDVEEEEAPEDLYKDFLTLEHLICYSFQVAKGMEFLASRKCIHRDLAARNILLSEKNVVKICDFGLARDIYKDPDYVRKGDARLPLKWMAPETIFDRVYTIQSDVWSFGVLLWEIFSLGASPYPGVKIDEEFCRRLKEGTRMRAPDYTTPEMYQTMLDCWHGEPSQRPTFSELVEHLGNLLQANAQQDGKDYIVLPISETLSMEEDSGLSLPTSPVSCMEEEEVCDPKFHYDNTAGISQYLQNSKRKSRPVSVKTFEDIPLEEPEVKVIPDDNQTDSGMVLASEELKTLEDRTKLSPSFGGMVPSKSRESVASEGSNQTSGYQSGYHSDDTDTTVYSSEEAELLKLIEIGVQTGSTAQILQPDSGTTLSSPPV

| Structure (SMILES) | IC50 [1] [µM] | IC50 [5] [µM] | IC50 [2] [µM] | IC50 [3] [µM] | IC50 [4] [µM] |
| --- | --- | --- | --- | --- | --- |
| COc1cc2c(Nc3ccc(NC(=O)Nc4cccc(Cl)c4)cc3)ncnc2cc1OCc1ccccc1 | > 10 | 4.65 | > 50 | > 50 | > 50 |
| COc1cc2c(Nc3ccc(NC(=O)Nc4cccc(Cl)c4)cc3)ncnc2cc1OCCCN1CCN(C)CC1 | 0.588 | 0.5 | 22.9 | 24.7 | 8.16 |
| COc1cc2c(Nc3ccc(NC(=O)Nc4ccc(Cl)cc4)cc3)ncnc2cc1OCCCN1CCN(C)CC1 | 0.815 | 0.235 | 28.7 | > 50 | 17.8 |
| COc1cc2c(Nc3ccc(NC(=O)Nc4ccc(C)c(C)c4)cc3)ncnc2cc1OCCCN1CCN(C)CC1 | 0.214 | 0.668 | 25.9 | 36.5 | 22 |
| COc1cc2c(Nc3ccc(NC(=O)Nc4ccc(Cl)cc4)c(Cl)c3)ncnc2cc1OCCN1CCCCC1 | > 10 | > 10 | 4.38 | 1.89 | 5 |
| COc1cc2c(Nc3ccc(NC(=O)Nc4ccccc4C)cc3)ncnc2cc1OCc1ccccc1 | > 10 | > 10 | 28.8 | > 50 | 23.9 |
| COc1cc2c(Nc3ccc(NC(=O)Nc4ccccc4)cc3)ncnc2cc1OCCCN1CCN(C)CC1 | 0.576 | 0.194 | 49.4 | 29.1 | 28.4 |
| COc1cc2c(Nc3ccc(NC(=O)Nc4ccc(C)cc4)cc3)ncnc2cc1OCc1ccccc1 | > 10 | > 10 | > 50 | > 50 | 25.4 |
| COc1cc2c(Nc3ccc(NC(=O)Nc4ccc(C)c(C)c4)cc3)ncnc2cc1OCc1ccccc1 | > 10 | > 10 | > 50 | > 50 | 49.6 |
| COc1cc2c(Nc3ccc(NC(=O)Nc4ccc(C)c(C)c4)c(Cl)c3)ncnc2cc1OCCCN1CCN(C)CC1 | 0.079 | 0.001 | 1.76 | 7.28 | 26 |
| COC(=O)CNC(=O)c1ccc(Nc2ncnc3cc(OCCCN4CCN(C)CC4)c(OC)cc23)cc1 | 0.275 | 0.611 | > 50 | > 50 | > 50 |
| COc1cc2c(Nc3ccc(NC(=O)Nc4ccccc4)c(Cl)c3)ncnc2cc1OCCCN1CCN(C)CC1 | 0.261 | 0.014 | 17.3 | > 50 | 33 |
| COc1cc2/c(=N/c3ccc(Br)cc3F)nc[nH]c2cc1OCC1CCN(C)CC1 [VANDETANIB] |  |  | 18.9 | 11.8 | 37.1 |

Second part, led by results:

| IC50 [1] [µM] | IC50 [5] [µM] | Structure (SMILES) | IC50 [2] [µM] | IC50 [3] [µM] | IC50 [4] [µM] |
| --- | --- | --- | --- | --- | --- |
| 0.404 | 0.763 | COC(=O)CNC(=O)c1ccc(Nc2ncnc3cc(OCCCN4CCOCC4)c(OC)cc23)cc1 | > 50 | > 50 | > 50 |
| 0.966 |  | COC(=O)CNC(=O)c1ccc(Nc2ncnc3cc(OCCN4CCCCC4)c(OC)cc23)cc1 | > 50 | 8.39 | > 50 |
| 0.014 | 0.051 | COc1cc2c(Nc3ccc(NC(=O)Nc4ccc(C)c(C)c4)c(Cl)c3)ncnc2cc1OCCCN1CCOCC1 | 7.29 | 2.63 | 3.52 |
| 0.014 | 0.078 | COc1cc2c(Nc3ccc(NC(=O)Nc4ccc(F)c(Cl)c4)c(Cl)c3)ncnc2cc1OCCCN1CCN(C)CC1 | 6.41 | 3.2 | 12.1 |
| 1.99 | 0.502 | COc1cc2c(Nc3ccc(NC(=O)Nc4ccccc4C)cc3)ncnc2cc1OCCCN1CCN(C)CC1 | > 50 | 32.2 | 22.3 |
| 0.178 |  | COc1cc2c(Nc3ccc(NC(=O)Nc4ccccc4C)c(Cl)c3)ncnc2cc1OCCCN1CCN(C)CC1 | 4.81 | 6.21 | > 50 |
| 0.018 | 0.817 | COc1cc2c(Nc3ccc(NC(=O)Nc4ccc(C)c(C)c4)c(Cl)c3)ncnc2cc1OCCN1CCCCC1 | 1.85 | 1.27 | 2.9 |
| 1.87 | 0.212 | COc1cc2c(Nc3ccc(NC(=O)Nc4ccccc4)c(Cl)c3)ncnc2cc1OCCN1CCCCC1 | > 50 | > 50 | > 50 |
| 0.528 | 0.017 | COc1cc2c(Nc3ccc(NC(=O)Nc4ccc(Cl)cc4)c(Cl)c3)ncnc2cc1OCCCN1CCOCC1 | 22 | 39.2 | 28 |
| 0.279 | 0.001 | COc1cc2c(Nc3ccc(NC(=O)Nc4ccc(Cl)cc4)c(Cl)c3)ncnc2cc1OCCCN1CCN(C)CC1 | 20.7 | > 50 | 28 |
| > 10 | > 10 | COc1cc2c(Nc3ccc(NC(=O)Nc4ccc(Cl)cc4)cc3)ncnc2cc1OCc1ccccc1 | > 50 | > 50 | 38.8 |
| > 10 | 2.93 | COc1cc2c(Nc3ccc(NC(=O)Nc4ccccc4)cc3)ncnc2cc1OCc1ccccc1 | > 50 | 22.8 | > 50 |
